Patent US20080176787A1, “Parathyroid hormone analogues and methods of use” (priority 2005, published 2008)
Several values for one entry are separate records, joined by “and”; a condition that tells them apart may be missing. Equal values may be shown once. Read-outs that look alike come from different tables or passages of the source. Positions of bridges follow the written chain, without caps; N, C: chain ends. Residues, ends and D or L forms follow the SMILES beside them.

How the values were obtained:
[1] = tested on: Gonad intact young Cynomolgus monkeys; assay: 6-week daily study in gonad intact young cynomolgus monkeys: % cortical porosity; type: in vivo; settings: Tibial Mid-Diaphysis, 6 weeks
Description: Comparative data regarding increase in cortical bone porosity in monkey subjects using Ostabolin C at a variety of doses and using the prior art PTHs 1-34 is shown below.

[2] = Phase II pharmacokinetic evaluation of subcutaneous Ostabolin-C (Baseline and Week 12 subset); type: in vivo, human; design: AUC(0-24): unit: pg·h/mL
Experimental: The objective of this portion of the study was to evaluate the pharmacokinetics of Ostabolin-C under steady state conditions when given subcutaneously (sc) once a day to post-menopausal female subjects with low bone mineral density.
After Screening procedures and a 2-week placebo run-in phase, subjects were to be dosed once a day for 16 weeks with either Placebo or Ostabolin-C (7.5, 15, 30 or 45 μg). A subset of subjects from all treatment groups had blood collected for measurements of Ostabolin-C in order to determine PK parameters and compare them to prior studies.
The full study duration of the study was 22 weeks, which included a 6-week screening period involving a 2-week placebo run-in and then 16 weeks of treatment. The subset of subjects for this component of the study was treated the same as all other subjects with the exception of the additional blood collections at baseline and Week 12.
All of the values from the Placebo subject except one (Baseline 2 hour time-point) were below the assay level of detection (i.e., 10 pg/ml). With very limited exceptions, all values from Placebo subjects in prior trials have also been below the levels of detection. Thus, this one value was considered to be a laboratory error and PK parameters for this placebo subject were not calculated.
No samples were obtained for Pre-dose at either Baseline or Week 12. In all prior studies, pre-treatment values have been below the levels of detection and 24-hour time points at doses of 40 ug and below have been below the levels of detection. Thus, no observable values were anticipated and for calculating PK the pre-treatment values for Baseline visit were set to zero.
For pre-dose at Week 12, it was also anticipated that the values would be below the levels of detection based on prior studies and that the 24-hour post dose value would verify this. Only two 24-hour time-point values were above the level of detection; i.e. 24 hours post dosing at Baseline for Subject 030-003 and 24 hours post dosing at Week 12 for Subject 030-0004. The values of both of these 24-hour time-points were marginally above the assay level of detection. Also, both of these subjects had values below the levels of detection for both the 4 hour and 6 hour time-points after dosing on the prior day. Thus, these values are most likely artifacts and not real values. No valid 24 hour sample for subject 032-0001 at Week 12 was obtained. […] Thus, for calculating PK parameters, the Pre-dose values for Week 12 were also set to zero.
The pharmacokinetic parameters that were estimated at Baseline and Week 12 are as follows:
AUC values were estimated by a simple summation of trapezoidal areas from each time period. Data from each dose group were summarized using simple statistics on an Excel® spreadsheet; i.e., average (AVG) and Standard Deviation (STD). It should be noted that particularly with the lower doses and associated low blood levels and at late time points, those values just above versus just below the assay limits of detection can have a disproportionate impact to AUC calculations. This adds to that variability of the calculated numbers.

[3] = Baseline, 7.5 ug, individual subjects, in pg·h/mL
[4] = Baseline, 15 ug, individual subjects, in pg·h/mL
[5] = Baseline, 45 ug, individual subjects, in pg·h/mL
[6] = Week 12, 7.5 ug, individual subjects, in pg·h/mL
[7] = Week 12, 30 ug, individual subjects, in pg·h/mL

Q: What does the source list for CC[C@H](C)[C@H](NC(=O)[C@H](CCC(=O)O)NC(=O)[C@H](CO)NC(=O)[C@@H](NC(=O)[C@@H](N)CO)C(C)C)C(=O)N[C@@H](CCC(N)=O)C(=O)N[C@@H](CC(C)C)C(=O)N[C@@H](CCSC)C(=O)N[C@@H](Cc1c[nH]cn1)C(=O)N[C@@H](CC(N)=O)C(=O)N[C@@H](CC(C)C)C(=O)NCC(=O)N[C@@H](CCCCN)C(=O)N[C@@H](Cc1c[nH]cn1)C(=O)N[C@@H](CC(C)C)C(=O)N[C@@H](CC(N)=O)C(=O)N[C@@H](CO)C(=O)N[C@@H](CCSC)C(=O)N[C@@H](CCC(=O)O)C(=O)N[C@@H](CCCN=C(N)N)C(=O)N[C@H](C(=O)N[C@H]1CCC(=O)NCCCC[C@@H](C(=O)N[C@@H](CC(C)C)C(=O)N[C@@H](CC(C)C)C(=O)N[C@@H](CCC(N)=O)C(=O)N[C@@H](CC(=O)O)C(=O)N[C@H](C(N)=O)C(C)C)NC(=O)[C@H](CCCN=C(N)N)NC(=O)[C@H](CC(C)C)NC(=O)[C@H](Cc2c[nH]c3ccccc23)NC1=O)C(C)C [Ostabolin-C, [Leu^27]cyclo[Glu^22-Lys^26]-PTH-(1-31)-NH2] (H-SVSEIQLMHNLGKHLNSMERVEWLRKLLQDV-NH2; lactam 22-26)?
A: % Cortical Porosity ([1]; F, 10 μg/kg/day): 3.2 ± 0.97%; % Cortical Porosity ([1]; F, 25 μg/kg/day): 4.0 ± 1.25%; % Cortical Porosity ([1]; F, 80 μg/kg/day): 10.6 ± 0.35%; % Cortical Porosity ([1]; M, 10 μg/kg/day): 3.7 ± 0.70%; % Cortical Porosity ([1]; M, 25 μg/kg/day): 5.8 ± 1.82%; % Cortical Porosity ([1]; M, 80 μg/kg/day): 16.4 ± 7.14 %; Tmax ([2]; Baseline, 7.5 ug, individual subjects): 1.00; Cmax ([2]; Baseline, 7.5 ug, individual subjects, in pg/mL): 27.75 and 33.15; AUC(0-4) [2, 3]: 11.71 and 16.25 and 88.35; AUC(0-24) [2, 3]: 11.71 and 16.25 and 99.67; Cmax ([2]; Baseline, 15 ug, individual subjects, in pg/mL): 57.54 and 46.59; AUC(0-4) [2, 4]: 82.31 and 74.38; AUC(0-24) [2, 4]: 82.31 and 74.38; Cmax ([2]; Baseline, 45 ug, individual subjects, in pg/mL): 114.54 and 233.33; AUC(0-4) [2, 5]: 344.39; AUC(0-24) [2, 5]: 370.47; Cmax ([2]; Week 12, 7.5 ug, individual subjects, in pg/mL): 37.84 and 40.38; AUC(0-4) [2, 6]: 28.83 and 64.83; AUC(0-24) [2, 6]: 28.83 and 64.83; AUC(0-24) ([2]; Week 12, 15 ug, individual subjects): 164.36 and 54.29* and 110.80; Cmax ([2]; Week 12, 15 ug, individual subjects, in pg/mL): 41.98 and 33.33 and 69.33; AUC(0-4) ([2]; Week 12, 15 ug, individual subjects, in pg·h/mL): 68.69 and 54.29 and 110.80; Cmax ([2]; Week 12, 30 ug, individual subjects, in pg/mL): 46.75; AUC(0-4) [2, 7]: 142.45 and 70.73; AUC(0-24) [2, 7]: 214.03; accumulation ([2]; after 12 weeks of dosing): no evidence of accumulation; Tmax ([2]; female, human, blood, sc, 7.5 ug, Baseline, 7.5 ug, AVG, read-out: Tmax): 30 min; AUC(0-t) ([2]; female, human, blood, sc, 7.5 ug, Dose 7.5, mean of Baseline and Week 12 data, read-out: AUC(0-4)): 0.0365 ng·h/mL; AUC(0-t) ([2]; female, human, blood, sc, 7.5 ug, Dose 7.5, mean of Baseline and Week 12 data, read-out: AUC(0-24)): 0.0384 ng·h/mL; Cmax ([2]; female, human, blood, sc, 7.5 ug, Dose 7.5, mean of Baseline and Week 12 data, read-out: Cmax): 0.0301 ng/mL; Tmax ([2]; female, human, blood, sc, 7.5 ug, Dose 7.5, mean of Baseline and Week 12 data, read-out: Tmax): 22.8 min; AUC(0-t) ([2]; female, human, blood, sc, 7.5 ug, Week 12, 7.5 ug, AVG, read-out: AUC(0-4)): 0.0343 ng·h/mL; AUC(0-t) ([2]; female, human, blood, sc, 7.5 ug, Week 12, 7.5 ug, AVG, read-out: AUC(0-24)): 0.0343 ng·h/mL; Cmax ([2]; female, human, blood, sc, 7.5 ug, Week 12, 7.5 ug, AVG, read-out: Cmax): 0.0331 ng/mL; Tmax ([2]; female, human, blood, sc, 7.5 ug, Week 12, 7.5 ug, AVG, read-out: Tmax): 15 min; Tmax ([2]; female, human, blood, sc, 15 ug, Baseline, 15 ug, AVG, read-out: Tmax): 19.8 min; AUC(0-t) ([2]; female, human, blood, sc, 15 ug, Dose 15, mean of Baseline and Week 12 data, read-out: AUC(0-4)): 0.0761 ng·h/mL; AUC(0-t) ([2]; female, human, blood, sc, 15 ug, Dose 15, mean of Baseline and Week 12 data, read-out: AUC(0-24)): 0.092 ng·h/mL; Cmax ([2]; female, human, blood, sc, 15 ug, Dose 15, mean of Baseline and Week 12 data, read-out: Cmax): 0.0466 ng/mL; AUC(0-t) ([2]; female, human, blood, sc, 15 ug, Week 12, 15 ug, AVG, read-out: AUC(0-4)): 0.0779 ng·h/mL; AUC(0-t) ([2]; female, human, blood, sc, 15 ug, Week 12, 15 ug, AVG, read-out: AUC(0-24)): 0.11 ng·h/mL; Cmax ([2]; female, human, blood, sc, 15 ug, Week 12, 15 ug, AVG, read-out: Cmax): 0.0482 ng/mL; AUC(0-t) ([2]; female, human, blood, sc, 30 ug, Dose 30, mean of Baseline and Week 12 data, read-out: AUC(0-4)): 0.123 ng·h/mL; AUC(0-t) ([2]; female, human, blood, sc, 30 ug, Dose 30, mean of Baseline and Week 12 data, read-out: AUC(0-24)): 0.129 ng·h/mL
